Here are results for three molecules from paper PMC12621043, “Un-LOK-ing a New Approach for Conformational Selective Targeting of STK10 (LOK)” (ACS Medicinal Chemistry Letters, 2025).

Holding throughout (assay): DSF Tm panel
Format in all cases: binding
Holding throughout (details): 10 μM compound

One test addresses T1, EPHA7A (Homo sapiens, UniProt Q15375).
T1 construct: purchased in-house DSF kinase panel (SGC-style construct names; the trailing letter is the construct ID)

The next test addresses T2, AKT3A (Homo sapiens, UniProt Q9Y243).
T2 construct: purchased in-house DSF kinase panel (SGC-style construct names; the trailing letter is the construct ID)

For another test, the target named is T3, PLK4A (Homo sapiens, UniProt O00444).
T3 construct: purchased in-house DSF kinase panel (SGC-style construct names; the trailing letter is the construct ID)
T3 sequence (O00444 2-275): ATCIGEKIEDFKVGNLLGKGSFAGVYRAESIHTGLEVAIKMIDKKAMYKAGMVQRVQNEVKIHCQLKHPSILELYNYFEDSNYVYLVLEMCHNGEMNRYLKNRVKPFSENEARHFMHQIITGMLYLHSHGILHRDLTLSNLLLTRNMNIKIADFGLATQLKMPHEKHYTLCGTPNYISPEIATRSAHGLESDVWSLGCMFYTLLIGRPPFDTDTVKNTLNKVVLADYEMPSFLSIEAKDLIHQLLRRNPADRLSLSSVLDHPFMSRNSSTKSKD
Here is the method: (§1) The synthesized urea-based derivatives were evaluated in a panel of kinases by differential scanning fluorescence (DSF) to investigate their selectivity profile. A positive ΔT m in the DSF assay indicates stabilization of the protein upon ligand binding in comparison to its apo state, with higher thermal shifts generally correlating with stronger binding. For this purpose, we used our internal kinase selectivity panel (∼90 kinases) along with staurosporine as a positive control. […] This was also reflected in the overall low selectivity score (S) throughout the series, which is determined by the ratio between the number of kinases that are stabilized above 5 °C and the total number of kinases tested (Figure ). Motivated by these findings, we further validated the entire series by orthogonal binding and activity assays to determine the in vitro and cellular potency and selectivity of the developed series in comparison to the selected reference compounds. […]
(§2) was performed as previously described.[1,2] Briefly, recombinant protein kinase domains at a concentration of 2 μM were mixed with 10 μM compound in a buffer containing 20 mM HEPES, […]
(§3) probe (1 µl per mL). Subsequently, temperature-dependent protein unfolding profiles were […]
(§4) emission filters were set to 465 nm and 590 nm, respectively. The temperature was raised with a step rate of 3 °C per minute. […]
(§5) inflection point of the transition curve. […]
(§6) previously.[3] In brief, STK10, STK3, STK4 and SLK were obtained as plasmids cloned in […]
(§7) Plasmids were transfected into
(§8) KD concentration taken from TracerDB (tracerdb.org)[4] were pipetted into white 384-well

Another test deals with T4, STK17AA (Homo sapiens, UniProt Q9UEE5).
T4 construct: purchased in-house DSF kinase panel (SGC-style construct names; the trailing letter is the construct ID)
T4 sequence (Q9UEE5 61-321): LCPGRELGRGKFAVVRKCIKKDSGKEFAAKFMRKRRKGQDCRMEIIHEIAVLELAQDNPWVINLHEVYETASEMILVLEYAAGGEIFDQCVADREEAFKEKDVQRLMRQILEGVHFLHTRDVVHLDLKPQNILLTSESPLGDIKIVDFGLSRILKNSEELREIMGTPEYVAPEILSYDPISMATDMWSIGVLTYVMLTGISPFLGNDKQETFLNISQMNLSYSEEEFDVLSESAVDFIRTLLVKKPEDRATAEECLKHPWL
The method, then:
as §1, §2, §3, §4, §5, §6, §7, §8

A further test has as its target T5, SRCA (Homo sapiens, UniProt P12931).
T5 construct: purchased in-house DSF kinase panel (SGC-style construct names; the trailing letter is the construct ID)
The method, then: as §1, §2, §3, §4, §5, §6, §7, §8

The next test deals with T6, BMPR2A (Homo sapiens, UniProt Q13873).
T6 construct: purchased in-house DSF kinase panel (SGC-style construct names; the trailing letter is the construct ID)
T6 sequence (Q13873 27-1038): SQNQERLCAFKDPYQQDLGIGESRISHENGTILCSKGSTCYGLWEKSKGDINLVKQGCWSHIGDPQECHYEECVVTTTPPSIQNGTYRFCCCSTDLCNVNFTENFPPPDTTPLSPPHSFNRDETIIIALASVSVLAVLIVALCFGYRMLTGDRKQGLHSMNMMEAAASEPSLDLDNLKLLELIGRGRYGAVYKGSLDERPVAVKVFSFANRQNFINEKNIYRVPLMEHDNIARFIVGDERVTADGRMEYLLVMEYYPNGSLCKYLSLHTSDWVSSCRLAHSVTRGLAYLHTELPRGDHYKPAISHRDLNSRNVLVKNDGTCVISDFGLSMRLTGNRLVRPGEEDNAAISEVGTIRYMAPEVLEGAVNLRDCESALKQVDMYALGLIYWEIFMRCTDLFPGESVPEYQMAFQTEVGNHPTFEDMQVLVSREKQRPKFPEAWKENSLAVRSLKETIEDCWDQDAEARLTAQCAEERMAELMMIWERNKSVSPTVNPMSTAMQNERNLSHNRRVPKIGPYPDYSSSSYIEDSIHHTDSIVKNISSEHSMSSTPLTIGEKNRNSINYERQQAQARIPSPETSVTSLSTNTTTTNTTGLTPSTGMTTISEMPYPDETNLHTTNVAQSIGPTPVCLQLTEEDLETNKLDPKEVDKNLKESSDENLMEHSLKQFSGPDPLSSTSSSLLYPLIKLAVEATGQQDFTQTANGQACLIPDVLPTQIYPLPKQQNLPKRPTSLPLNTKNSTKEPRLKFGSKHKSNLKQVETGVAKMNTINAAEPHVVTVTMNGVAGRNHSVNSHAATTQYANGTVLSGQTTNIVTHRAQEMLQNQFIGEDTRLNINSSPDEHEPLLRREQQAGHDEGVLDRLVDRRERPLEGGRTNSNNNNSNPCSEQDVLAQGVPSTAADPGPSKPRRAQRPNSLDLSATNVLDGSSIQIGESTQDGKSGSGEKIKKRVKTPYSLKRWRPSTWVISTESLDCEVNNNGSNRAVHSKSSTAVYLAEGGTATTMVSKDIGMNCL
The method, then: as §1, §2, §3, §4, §5, §6, §7, §8

In the next test the target is T7, PAK4A (Homo sapiens, UniProt O96013).
T7 construct: purchased in-house DSF kinase panel (SGC-style construct names; the trailing letter is the construct ID)
T7 sequence (O96013 291-591): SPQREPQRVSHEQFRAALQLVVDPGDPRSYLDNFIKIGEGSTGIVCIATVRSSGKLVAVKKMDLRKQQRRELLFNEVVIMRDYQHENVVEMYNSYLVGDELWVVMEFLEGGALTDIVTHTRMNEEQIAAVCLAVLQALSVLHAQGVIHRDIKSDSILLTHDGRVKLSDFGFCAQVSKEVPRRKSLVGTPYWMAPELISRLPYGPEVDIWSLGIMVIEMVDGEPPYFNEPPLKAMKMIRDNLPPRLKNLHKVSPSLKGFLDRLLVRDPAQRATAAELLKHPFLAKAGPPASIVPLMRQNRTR
The method, then:
as §1, §2, §3, §4, §5, §6, §7, §8

The target of another test is T8, CHEK2A (Homo sapiens, UniProt O96017).
T8 construct: purchased in-house DSF kinase panel (SGC-style construct names; the trailing letter is the construct ID)
T8 sequence (O96017 210-531): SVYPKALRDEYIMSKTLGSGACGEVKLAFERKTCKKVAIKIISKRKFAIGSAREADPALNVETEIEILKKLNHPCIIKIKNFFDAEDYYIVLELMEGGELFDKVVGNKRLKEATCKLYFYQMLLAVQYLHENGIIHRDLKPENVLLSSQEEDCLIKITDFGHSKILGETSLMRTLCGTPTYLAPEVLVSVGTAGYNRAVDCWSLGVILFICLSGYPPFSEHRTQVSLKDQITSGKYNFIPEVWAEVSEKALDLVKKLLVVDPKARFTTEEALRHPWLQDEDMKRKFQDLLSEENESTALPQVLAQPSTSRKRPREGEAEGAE
The method, then:
as §1, §2, §3, §4, §5, §6, §7, §8

A further test addresses T9, ULK1A (Homo sapiens, UniProt O75385).
T9 construct: purchased in-house DSF kinase panel (SGC-style construct names; the trailing letter is the construct ID)
T9 sequence (O75385 1-283): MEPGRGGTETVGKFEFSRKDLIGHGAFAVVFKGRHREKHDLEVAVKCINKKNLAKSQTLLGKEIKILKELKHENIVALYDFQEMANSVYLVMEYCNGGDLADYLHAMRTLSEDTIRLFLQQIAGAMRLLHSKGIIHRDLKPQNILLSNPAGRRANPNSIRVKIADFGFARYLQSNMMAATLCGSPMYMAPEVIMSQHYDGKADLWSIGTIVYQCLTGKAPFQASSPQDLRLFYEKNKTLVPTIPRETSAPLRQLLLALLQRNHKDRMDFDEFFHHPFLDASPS
The method, then: as §1, §2, §3, §4, §5, §6, §7, §8

The target in another test is T10, FGFR1B (Homo sapiens, UniProt P11362).
T10 construct: purchased in-house DSF kinase panel (SGC-style construct names; the trailing letter is the construct ID)
T10 sequence (P11362 456-767): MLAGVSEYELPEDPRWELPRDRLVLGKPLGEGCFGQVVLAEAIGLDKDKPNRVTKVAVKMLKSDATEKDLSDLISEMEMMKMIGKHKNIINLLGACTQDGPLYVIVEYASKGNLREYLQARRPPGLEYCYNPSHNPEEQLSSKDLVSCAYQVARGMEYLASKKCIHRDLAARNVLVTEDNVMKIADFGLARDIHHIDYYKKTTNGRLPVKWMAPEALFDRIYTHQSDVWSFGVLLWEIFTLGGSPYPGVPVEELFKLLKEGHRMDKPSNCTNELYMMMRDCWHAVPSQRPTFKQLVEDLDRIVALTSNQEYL
Here is the method: as §1, §2, §3, §4, §5, §6, §7, §8

A further test has as its system TAF1A. Here is the method:
as §1, §2, §3, §4, §5, §6, §7, §8

The next test concerns the target T11, BRAFA (Homo sapiens, UniProt P15056).
T11 construct: purchased in-house DSF kinase panel (SGC-style construct names; the trailing letter is the construct ID)

Broadly, the ΔTm is the change in melting temperature against a reference sample.

T2 sequence (Q9Y243 148-479): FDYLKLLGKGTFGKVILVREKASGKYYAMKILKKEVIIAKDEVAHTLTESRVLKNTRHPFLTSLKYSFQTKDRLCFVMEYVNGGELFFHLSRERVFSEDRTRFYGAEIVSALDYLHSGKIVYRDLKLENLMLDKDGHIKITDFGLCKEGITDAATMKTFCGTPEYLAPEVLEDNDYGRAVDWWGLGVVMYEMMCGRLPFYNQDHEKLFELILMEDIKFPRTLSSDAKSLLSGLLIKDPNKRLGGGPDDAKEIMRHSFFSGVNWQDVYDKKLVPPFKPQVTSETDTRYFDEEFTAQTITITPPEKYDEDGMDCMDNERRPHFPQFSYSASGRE
T5 sequence (P12931 254-536): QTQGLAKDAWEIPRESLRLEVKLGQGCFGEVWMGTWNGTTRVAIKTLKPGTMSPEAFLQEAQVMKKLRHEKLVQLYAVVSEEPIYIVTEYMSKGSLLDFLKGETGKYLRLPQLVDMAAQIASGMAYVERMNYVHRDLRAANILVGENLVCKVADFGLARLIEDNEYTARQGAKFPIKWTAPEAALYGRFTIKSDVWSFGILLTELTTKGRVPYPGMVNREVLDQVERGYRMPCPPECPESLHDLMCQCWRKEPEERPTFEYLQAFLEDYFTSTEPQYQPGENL
T1 sequence (Q15375 590-899): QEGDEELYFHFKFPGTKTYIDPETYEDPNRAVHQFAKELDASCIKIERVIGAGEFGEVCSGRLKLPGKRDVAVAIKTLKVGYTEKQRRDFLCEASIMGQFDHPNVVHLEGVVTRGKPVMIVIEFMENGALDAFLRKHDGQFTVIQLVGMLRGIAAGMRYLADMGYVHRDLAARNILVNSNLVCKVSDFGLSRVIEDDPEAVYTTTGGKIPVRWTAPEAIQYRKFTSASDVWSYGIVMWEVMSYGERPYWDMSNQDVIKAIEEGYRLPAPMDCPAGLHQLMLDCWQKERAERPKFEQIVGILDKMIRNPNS
T11 sequence (P15056 448-723): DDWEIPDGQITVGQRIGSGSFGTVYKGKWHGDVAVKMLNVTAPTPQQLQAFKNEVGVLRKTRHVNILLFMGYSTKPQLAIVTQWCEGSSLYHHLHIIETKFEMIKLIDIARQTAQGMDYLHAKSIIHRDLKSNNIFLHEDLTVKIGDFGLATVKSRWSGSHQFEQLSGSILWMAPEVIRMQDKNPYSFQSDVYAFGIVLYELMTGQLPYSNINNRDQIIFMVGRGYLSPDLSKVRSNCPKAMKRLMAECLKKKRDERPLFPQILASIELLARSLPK

In the case of `COc1cc(CNC(=O)Nc2ccc3cc2OCCOCCNc2ccn4ncc-3c4n2)ccc1F` [compound 33], the ΔTm at 10 µM on EPHA7A was 1.9 °C; on AKT3A, 0.9 °C; on PLK4A it was 5.5 °C; on STK17AA, 7.6 °C; on SRCA, 2.6 °C; at BMPR2A it was 3.7 °C. The ΔTm at 10 µM at PAK4A was 2.2 °C; on CHEK2A it was 6.5 °C; at ULK1A, 0.2 °C; on FGFR1B it was 1.9 °C; at BRAFA, -0.6 °C. In the test with TAF1A, the “ΔTm TAF1A” value was 0,1 °C.
`C[C@H](NC(=O)Nc1ccc2cc1OCCOCCNc1ccn3ncc-2c3n1)c1ccccc1` [compound 34]: the ΔTm at 10 µM on EPHA7A was 1.9 °C; on AKT3A, 0.4 °C; on PLK4A it was 4.7 °C; at STK17AA, 6 °C; at SRCA it was 1.4 °C; on BMPR2A it was 5.1 °C. Also, the ΔTm at 10 µM at PAK4A is 1.4 °C; at CHEK2A, 6.3 °C; at ULK1A, -0.1 °C; on FGFR1B it was 1.2 °C; on BRAFA, -0.5 °C. In the test with TAF1A, the “ΔTm TAF1A” value is -0,3 °C.
Turning to `CN1CCN(C(=O)Nc2ccc3cc2OCCOCCNc2ccn4ncc-3c4n2)CC1` [compound 35], the ΔTm at 10 µM on EPHA7A was -1.4 °C; at AKT3A, 0 °C; on PLK4A, 3 °C; on STK17AA, 1.7 °C; at SRCA, 0.7 °C; on BMPR2A, 3.5 °C. For the same molecule, the ΔTm at 10 µM on PAK4A was -0.3 °C; on CHEK2A, 0.8 °C; on ULK1A it was 0.2 °C; on FGFR1B it was 0.7 °C; at BRAFA, 1.2 °C. For the same molecule, the “ΔTm TAF1A” value in the test on TAF1A was 0,1 °C.
